Patent publication US7803930B2, “Antisense modulation of apolipoprotein B-expression” (Isis Pharmaceuticals, Inc., priority 2002, dated 2010)
In the oligonucleotide strings, read from the 5' end, every base follows the letter of its sugar. An asterisk marks phosphorothioate; unmarked linkages are phosphodiester. Other units and linkages are bracketed, terminal groups are in braces. A string of capitals states the bases alone. e = 2'-O-(2-methoxyethyl) (MOE); [5mC] = 5-methylcytosine; d = 2'-deoxy (DNA)

Legend:
[1] = C57BL/6NTac-TgN(APOB100) transgenic mice (Example 47): liver enzyme, cholesterol, LDL-cholesterol and triglyceride levels; format: in vivo, mouse; conditions: C57BL/6NTac-TgN(APOB100) mice, 25 mg/kg i.p. twice a week, eight weeks; for AST and ALT levels: normal levels ~300 IU/L
Procedure: (§1) C57BL/6NTac-TgN(APOB100) mice were divided into two groups—one group receiving oligonucleotide treatment and control animals receiving saline treatment. After overnight fasting, mice were dosed intraperitoneally twice a week with saline or 25 mg/kg ISIS 281625 (SEQ ID No: 224) or ISIS 301012 (SEQ ID No: 247) for eight weeks. At study termination and forty eight hours after the final injections, animals were sacrificed and evaluated for target mRNA levels in liver, cholesterol and triglyceride levels, and liver enzyme levels. In addition, the endogenous mouse apolipoprotein B levels in liver were measured to evaluate any effects of these antisense oligonucletides targeted to the human apolipoprotein B.

[2] = system: human apolipoprotein B mRNA; test: C57BL/6NTac-TgN(APOB100) transgenic mice, 8 weeks (Example 47): human apolipoprotein B mRNA in liver; format: in vivo, human transgene in mouse; conditions: C57BL/6NTac-TgN(APOB100) mice, 25 mg/kg i.p. twice a week, eight weeks; for mRNA % control, human mRNA: liver
Procedure: as §1

[3] = system: endogenous mouse apolipoprotein B; test: C57BL/6NTac-TgN(APOB100) transgenic mice, 8 weeks (Example 47): endogenous mouse apolipoprotein B mRNA in liver; format: in vivo; conditions: C57BL/6NTac-TgN(APOB100) mice, 25 mg/kg i.p. twice a week, eight weeks; for mRNA % control, mouse mRNA: liver; for levels of the endogenous mouse apolipoprotein B in liver: specificity
Procedure: as §1

[4] = system: human apolipoprotein B mRNA; test: Inhibition of apolipoprotein B mRNA by dsRNAs in HepG2 cells; format: cell-based; conditions: 150 nM with 3.75 μg/mL LIPOFECTIN
Procedure: In accordance with the present invention, a series of nucleic acid duplexes comprising the antisense compounds of the present invention and their complements were designed to target apolipoprotein B and are shown in Table 42. All compounds in Table 42 are oligoribonucleotides 20 nucleotides in length with phosphodiester internucleoside linkages (backbones) throughout the compound. The compounds were prepared with blunt ends. […] These sequences are shown to contain uracil (U) but one of skill in the art will appreciate that uracil (U) is generally replaced by thymine (T) in DNA sequences. “Targer site” indicates the first (5′-most) nucleotide number on the particular target sequence to which the compound binds. A subset of the compounds in Table 42 are the RNA equivalents of DNA antisense oligonucleotides described herein, and, where applicable, this is noted by the ISIS # of the DNA oligonucleotide in the column “RNA equivalent of ISIS #”.
The dsRNA compounds in Table 42 were tested for their effects on human apolipoprotein mRNA in HepG2 cells. HepG2 cells were treated with 100 nM of dsRNA compounds mixed with 5 μg/mL LIPOFECTIN (Invitrogen Corporation, Carlsbad, Calif.) for a period of 16 hours. In the same experiment, HepG2 cells were also treated with 150 nM of subset of the antisense oligonucleotides described herein mixed with 3.75 μg/mL LIPOFECTIN; these compounds are listed in Table 43. Control oligonucleotides included ISIS 18078 ([…], SEQ ID NO: 888). ISIS 18078 is a chimeric oligonucleotide (“gapmer”) 20 nucleotides in length, composed of a central “gap” region consisting of 9 2′-deoxynucleotides, which is flanked on the 5′ and 3′ ends by a five-nucleotide “wing” and a six-nucleotide “wing”, respectively. The wings are composed of 2′-methoxyethyl (2′-MOE)nucleotides. The internucleoside (backbone) linkages are phosphorothioate (P═S) throughout the oligonucleotide. All cytidines are 5-methylcytidines. The duplex of ISIS 263188 ([…], SEQ ID NO: 889) and its complement was also used as a control. ISIS 263188 is an oligoribonucleotide 21 nucleotides in length with the 2 nucleotides on the 3′ end being oligodeoxyribonucleotides (TT) and with phosphodiester internucleoside linkages (backbones) throughout the compound.
Cells were treated for 4 hours, after which human apolipoprotein B mRNA expression was measured as described by examples herein. Results were normalized to untreated control cells, which were not treated with LIPOFECTIN or oligonucleotide.

[5] = system: human apolipoprotein B mRNA; test: Apolipoprotein B mRNA in primary human hepatocytes, real-time PCR; format: cell-based; conditions: for apolipoprotein B mRNA expression: 5, 10, 50 or 150 nM
Procedure: In accordance with the present invention, antisense oligonucleotides targeted to human apolipoprotein B were tested in dose response studies in primary human hepatocytes. Pre-plated primary human hepatocytes were purchased from Invitro Technologies (Baltimore, Md.). Cells were cultured in high-glucose DMEM (Invitrogen Corporation, Carlsbad, Calif.) supplemented with 10% fetal bovine serum (Invitrogen Corporation, Carlsbad, Calif.), 100 units/mL and 100 μg/mL streptomycin (Invitrogen Corporation, Carlsbad, Calif.).
Human primary hepatocytes were treated with ISIS 301012 (SEQ ID NO: 247) at 10, 50, 150 or 300 nM. Untreated cells and cells treated with the scrambled control oligonucleotide ISIS 113529 ([…], SEQ ID NO: 859) served as two groups of control cells. ISIS 113529 is a chimeric oligonucleotide (“gapmer”) 20 nucleotides in length, composed of a central “gap” region consisting of ten 2′-deoxynucleotides, which is flanked on both sides (5′ and 3′ directions) by five-nucleotide “wings”. The wings are composed of 2′-methoxyethyl (2′-MOE)nucleotides. The internucleoside (backbone) linkages are phosphorothioate (P═S) throughout the oligonucleotide. All cytidines are 5-methylcytidines.
(§2) Oligonucleotides were introduced into cells through LIPOFECTIN-mediated transfection as described by other examples herein. Cells were harvested both 24 and 48 hours after treatment with oligonucleotide, and both RNA and protein were isolated. Additionally, the culture media from treated cells was collected for ELISA analysis of apolipoprotein B protein secretion.
Apolipoprotein B mRNA expression was determined by real-time PCR of RNA samples as described by other examples herein. Each result represents 6 experiments.
(§3) An additional experiment was performed to test the effects of ISIS 271009 (SEQ ID NO: 319), ISIS 281625 (SEQ ID NO: 224) and ISIS 301027 (SEQ ID NO: 262) on human apolipoprotein B mRNA in human primary hepatocytes. Cells were cultured as described herein and treated with 5, 10, 50 or 150 nM of ISIS 271009, ISIS 281625 or ISIS 301027 for a period of 24 hours. The control oligonucleotides ISIS 13650 (SEQ ID NO: 806) and ISIS 113529 (SEQ ID NO: 859) were used at 50 or 150 nM. Human apolipoprotein B mRNA expression was evaluated by real-time PCR as described by other examples herein. Apolipoprotein B protein secreted into the cultured cell media was measured in the samples treated with 50 and 150 nM of oligonucleotide, using a target protein specific ELISA kit (ALerCHEK Inc., Portland, Me.).

apolipoprotein B protein = test: Apolipoprotein B protein secreted from primary human hepatocytes, ELISA; format: cell-based
Procedure: as §2
Apolipoprotein secreted from into the cultured cell media was measured in the samples treated with 50 and 150 nM of oligonucleotide, using a target protein specific ELISA kit (ALerCHEK Inc., Portland, Me.). Each result represents 3 experiments.
as §3

[6] = 5 nM, 24 hours, "+" = expression increased
[7] = 150 nM, 24 hours, "+" = increased

For “281625 (antisense eA*eG*eG*eT*eT*dA*d[5mC]*d[5mC]*dA*dG*d[5mC]*d[5mC]*dA*d[5mC]*dA*eT*eG*e[5mC]*eA*eG) [compound 281625]”, the “Lipoproteins CHOL” value [1] was 152.0 mg/dL, the “Lipoproteins HDL” value [1] was 84.6 mg/dL and the “Lipoproteins LDL” value [1] was 49.8 mg/dL. For the same substance, the “Lipoproteins TRIG” value [1] was 171.1 mg/dL, the “Liver Enzymes ALT” value [1] was 363.8 IU/L and the “Liver Enzymes AST” value [1] was 265.8 IU/L. For the same substance, the “mRNA % control, human mRNA” value [2] was 45.2 % control, the “mRNA % control, mouse mRNA” value [3] was 111.0 % control and the “% Inhibition of apolipoprotein B mRNA” value [4] was 79%.
In the case of “301027 (eG*e[5mC]*eT*e[5mC]*eA*d[5mC]*dT*dG*dT*dA*dT*dG*dG*dT*dT*eT*eT*eA*eT*e[5mC]; antisense) [compound 301027]”, the “% Inhibition of apolipoprotein B mRNA” value [4] is reported as 79%.
For “ISIS 301027: SEQ ID NO: 262, 2′-MOE gapmer targeted to human apolipoprotein B (antisense eG*e[5mC]*eT*e[5mC]*eA*d[5mC]*dT*dG*dT*dA*dT*dG*dG*dT*dT*eT*eT*eA*eT*e[5mC])”, the “% Inhibition of apolipoprotein B mRNA expression” value [5, 6] was 11%, the “% Inhibition of apolipoprotein B mRNA expression” value ([5]; 10 nM, 24 hours (Table 37)) was 37% and the “% Inhibition of apolipoprotein B mRNA expression” value ([5]; 50 nM, 24 hours (Table 37)) was 50%. For the same substance, the “% Inhibition of apolipoprotein B mRNA expression” value ([5]; 150 nM, 24 hours (Table 37)) was 70%, the “apolipoprotein B mRNA expression” value ([5]; 24 hours) was “inhibit apolipoprotein B mRNA expression in a dose-dependent manner” and the “% Inhibition of apolipoprotein B protein secretion” value (apolipoprotein B protein; 50 nM, 24 hours) was 21%. The “% Inhibition of apolipoprotein B protein secretion” value (apolipoprotein B protein; [7]) was 32% and the “secretion of apolipoprotein B protein from cells (ELISA)” value (apolipoprotein B protein; 50 and 150 nM) was “inhibit the secretion of apolipoprotein B protein from cells in a dose-dependent manner”.
In the case of “ISIS 281625: SEQ ID NO: 224, 2′-MOE gapmer targeted to human apolipoprotein B (antisense eA*eG*eG*eT*eT*dA*d[5mC]*d[5mC]*dA*dG*d[5mC]*d[5mC]*dA*d[5mC]*dA*eT*eG*e[5mC]*eA*eG)”, the “Cholesterol levels relative to saline treatment” value [1] is reported as “slightly increased”, the “triglyceride levels relative to saline treatment” value [1] is reported as “slightly decreased” and the “AST and ALT levels” value [1] is reported as “increased, yet did not exceed normal levels”. The “mRNA levels of the human apolipoprotein B in liver” value [2] was “markedly decreased”, the “levels of the endogenous mouse apolipoprotein B in liver” value [3] was “unaffected” and the “% Inhibition of apolipoprotein B mRNA expression” value [5, 6] was 8%. For the same substance, the “% Inhibition of apolipoprotein B mRNA expression” value ([5]; 10 nM, 24 hours (Table 37)) was 22%, the “% Inhibition of apolipoprotein B mRNA expression” value ([5]; 50 nM, 24 hours (Table 37)) was 49% and the “% Inhibition of apolipoprotein B mRNA expression” value ([5]; 150 nM, 24 hours (Table 37)) was 52%. The “apolipoprotein B mRNA expression” value ([5]; 24 hours) was “inhibit apolipoprotein B mRNA expression in a dose-dependent manner”, the “% Inhibition of apolipoprotein B protein secretion” value (apolipoprotein B protein; 50 nM, 24 hours) was 18% and the “% Inhibition of apolipoprotein B protein secretion” value (apolipoprotein B protein; [7]) was 18%.
For “113529 (antisense e[5mC]*eT*e[5mC]*eT*eT*dA*d[5mC]*dT*dG*dT*dG*d[5mC]*dT*dG*dT*eG*eG*eA*e[5mC]*eA) [compound 113529]”, the “% Inhibition of apolipoprotein B mRNA” value ([5]; 150 nM, 24 hours) was 16%, the “% Inhibition of apolipoprotein B mRNA” value ([5]; 150 nM, 48 hours) was 5% and the “% Inhibition of apolipoprotein B mRNA” value ([5]; 300 nM, 24 hours) was 10%. The “% Inhibition of apolipoprotein B mRNA” value ([5]; 300 nM, 48 hours) was 18%, the “% Change in apolipoprotein B protein secretion” value (“% Change” for short) (apolipoprotein B protein; 150 nM, 24 hours) was “+6%” and the “% Change” value (apolipoprotein B protein; 150 nM, 48 hours) was “+4%”.
In the case of “ISIS 301012: SEQ ID NO: 247, antisense oligonucleotide targeted to human apolipoprotein B (antisense GCCTCAGTCTGCTTCGCACC; chemistry not given here)”, the “Cholesterol levels relative to saline treatment” value [1] is reported as “slightly increased”, the “triglyceride levels relative to saline treatment” value [1] is reported as “slightly decreased” and the “AST and ALT levels” value [1] is reported as “increased, yet did not exceed normal levels”. For the same substance, the “mRNA levels of the human apolipoprotein B in liver” value [2] was “markedly decreased”, the “levels of the endogenous mouse apolipoprotein B in liver” value [3] was “unaffected” and the “apolipoprotein B expression (mRNA)” value ([5]; 10, 50, 150 or 300 nM, 24 and 48 hours) was “inhibits apolipoprotein B expression in a dose-dependent manner”.
In the case of “301012 (eG*e[5mC]*e[5mC]*eT*e[5mC]*dA*dG*dT*d[5mC]*dT*dG*d[5mC]*dT*dT*d[5mC]*eG*e[5mC]*eA*e[5mC]*e[5mC]) [compound 301012]”, the “Lipoproteins CHOL” value [1] is reported as 145.1 mg/dL, the “Lipoproteins HDL” value [1] is reported as 98.6 mg/dL and the “Lipoproteins LDL” value [1] is reported as 36.6 mg/dL. For the same substance, the “Lipoproteins TRIG” value [1] was 157.8 mg/dL, the “Liver Enzymes ALT” value [1] was 137.4 IU/L and the “Liver Enzymes AST” value [1] was 208.4 IU/L. The “mRNA % control, human mRNA” value [2] was 23.7 % control, the “mRNA % control, mouse mRNA” value [3] was 94.6 % control and the “% Inhibition of apolipoprotein B mRNA” value ([5]; 10 nM, 24 hours) was 65%. The “% Inhibition of apolipoprotein B mRNA” value ([5]; 10 nM, 48 hours) was 33%, the “% Inhibition of apolipoprotein B mRNA” value ([5]; 50 nM, 24 hours) was 75% and the “% Inhibition of apolipoprotein B mRNA” value ([5]; 50 nM, 48 hours) was 48%. For the same substance, the “% Inhibition of apolipoprotein B mRNA” value ([5]; 150 nM, 24 hours) was 90%, the “% Inhibition of apolipoprotein B mRNA” value ([5]; 150 nM, 48 hours) was 78% and the “% Inhibition of apolipoprotein B mRNA” value ([5]; 300 nM, 24 hours) was 89%. The “% Inhibition of apolipoprotein B mRNA” value ([5]; 300 nM, 48 hours) was 72%, the “% Inhibition of apolipoprotein B mRNA” value [4] was 77% and the “% Change” value (apolipoprotein B protein; 150 nM, 24 hours) was −57%. For the same substance, the “% Change” value (apolipoprotein B protein; 150 nM, 48 hours) was −75%.
